Numbers after ± are expanded uncertainties.
Settings: Liquid; for viscosity: Vibrating wire viscometry; for vapor or sublimation pressure: Closed cell (Static) method

With `CCF` [fluoroethane] the viscosity (243.17 K, 5000 kPa) was 0.232 ± 0.0073 mPa·s, the viscosity (243.17 K, 10000 kPa) was 0.2433 ± 0.0075 mPa·s and the viscosity (243.17 K, 15000 kPa) was 0.2538 ± 0.0078 mPa·s. It also gave a viscosity (243.17 K, 20000 kPa) of 0.2643 ± 0.008 mPa·s, a viscosity (243.17 K, 25000 kPa) of 0.2748 ± 0.0082 mPa·s and a viscosity (243.17 K, 30000 kPa) of 0.285 ± 0.0085 mPa·s. For the same compound, the “vapor or sublimation pressure” value (243.17 K) was 140 ± 120 kPa, the viscosity (243.17 K) was 0.2238 ± 0.0071 mPa·s and the viscosity (253.16 K, 5000 kPa) was 0.2037 ± 0.0066 mPa·s. For the same compound, the viscosity (253.16 K, 10000 kPa) was 0.2128 ± 0.0068 mPa·s, the viscosity (253.16 K, 15000 kPa) was 0.2214 ± 0.007 mPa·s and the viscosity (253.16 K, 20000 kPa) was 0.2315 ± 0.0073 mPa·s. For the same compound, the viscosity (253.16 K, 25000 kPa) was 0.2396 ± 0.0074 mPa·s, the viscosity (253.16 K, 30000 kPa) was 0.2489 ± 0.0076 mPa·s and the “vapor or sublimation pressure” value (253.16 K) was 210 ± 120 kPa. The viscosity (253.16 K) was 0.1961 ± 0.0065 mPa·s, the viscosity (263.17 K, 5000 kPa) was 0.1834 ± 0.0062 mPa·s and the viscosity (263.17 K, 10000 kPa) was 0.1926 ± 0.0064 mPa·s. The viscosity (263.17 K, 15000 kPa) was 0.2012 ± 0.0066 mPa·s, the viscosity (263.17 K, 20000 kPa) was 0.2097 ± 0.0068 mPa·s and the viscosity (263.17 K, 25000 kPa) was 0.2177 ± 0.0069 mPa·s. For the same compound, the viscosity (263.17 K, 30000 kPa) was 0.2262 ± 0.0071 mPa·s, the “vapor or sublimation pressure” value (263.17 K) was 310 ± 120 kPa and the viscosity (263.17 K) was 0.175 ± 0.006 mPa·s. For the same compound, the viscosity (273.15 K, 5000 kPa) was 0.1642 ± 0.0058 mPa·s, the viscosity (273.15 K, 10000 kPa) was 0.1729 ± 0.006 mPa·s and the viscosity (273.15 K, 15000 kPa) was 0.1812 ± 0.0062 mPa·s. It also gave a viscosity (273.15 K, 20000 kPa) of 0.1894 ± 0.0063 mPa·s, a viscosity (273.15 K, 25000 kPa) of 0.1971 ± 0.0065 mPa·s and a viscosity (273.15 K, 30000 kPa) of 0.205 ± 0.0067 mPa·s. For the same compound, the “vapor or sublimation pressure” value (273.15 K) was 440 ± 120 kPa, the viscosity (273.15 K) was 0.1565 ± 0.0057 mPa·s and the viscosity (283.15 K, 5000 kPa) was 0.147 ± 0.0055 mPa·s. It also gave a viscosity (283.15 K, 10000 kPa) of 0.1553 ± 0.0056 mPa·s, a viscosity (283.15 K, 15000 kPa) of 0.1637 ± 0.0058 mPa·s and a viscosity (283.15 K, 20000 kPa) of 0.1713 ± 0.006 mPa·s. The viscosity (283.15 K, 25000 kPa) was 0.1794 ± 0.0061 mPa·s, the viscosity (283.15 K, 30000 kPa) was 0.1868 ± 0.0063 mPa·s and the “vapor or sublimation pressure” value (283.15 K) was 600 ± 120 kPa. It also gave a viscosity (283.15 K) of 0.1395 ± 0.0053 mPa·s, a viscosity (293.15 K, 5000 kPa) of 0.1322 ± 0.0052 mPa·s and a viscosity (293.15 K, 10000 kPa) of 0.1406 ± 0.0054 mPa·s. For the same compound, the viscosity (293.15 K, 15000 kPa) was 0.1489 ± 0.0055 mPa·s, the viscosity (293.15 K, 20000 kPa) was 0.1566 ± 0.0057 mPa·s and the viscosity (293.15 K, 25000 kPa) was 0.1642 ± 0.0058 mPa·s. The viscosity (293.15 K, 30000 kPa) was 0.1717 ± 0.006 mPa·s, the “vapor or sublimation pressure” value (293.15 K) was 810 ± 120 kPa and the viscosity (293.15 K) was 0.1247 ± 0.0051 mPa·s. The viscosity (303.15 K, 5000 kPa) was 0.1196 ± 0.005 mPa·s, the viscosity (303.15 K, 10000 kPa) was 0.1279 ± 0.0051 mPa·s and the viscosity (303.15 K, 15000 kPa) was 0.136 ± 0.0053 mPa·s. It also gave a viscosity (303.15 K, 20000 kPa) of 0.1437 ± 0.0054 mPa·s, a viscosity (303.15 K, 25000 kPa) of 0.1512 ± 0.0056 mPa·s and a viscosity (303.15 K, 30000 kPa) of 0.1584 ± 0.0057 mPa·s. The “vapor or sublimation pressure” value (303.15 K) was 1060 ± 120 kPa, the viscosity (303.15 K) was 0.1122 ± 0.0048 mPa·s and the viscosity (313.14 K, 5000 kPa) was 0.1078 ± 0.0048 mPa·s. For the same compound, the viscosity (313.14 K, 10000 kPa) was 0.1164 ± 0.0049 mPa·s, the viscosity (313.14 K, 15000 kPa) was 0.1242 ± 0.005 mPa·s and the viscosity (313.14 K, 20000 kPa) was 0.132 ± 0.0052 mPa·s. For the same compound, the viscosity (313.14 K, 25000 kPa) was 0.1393 ± 0.0053 mPa·s, the viscosity (313.14 K, 30000 kPa) was 0.1468 ± 0.0055 mPa·s and the “vapor or sublimation pressure” value (313.14 K) was 1360 ± 120 kPa. The viscosity (313.14 K) was 0.1003 ± 0.0046 mPa·s, the viscosity (323.16 K, 5000 kPa) was 0.0968 ± 0.0046 mPa·s and the viscosity (323.16 K, 10000 kPa) was 0.1054 ± 0.0047 mPa·s. It also gave a viscosity (323.16 K, 15000 kPa) of 0.1134 ± 0.0049 mPa·s, a viscosity (323.16 K, 20000 kPa) of 0.1209 ± 0.005 mPa·s and a viscosity (323.16 K, 25000 kPa) of 0.1282 ± 0.0051 mPa·s. For the same compound, the viscosity (323.16 K, 30000 kPa) was 0.1356 ± 0.0053 mPa·s, the “vapor or sublimation pressure” value (323.16 K) was 1730 ± 120 kPa and the viscosity (323.16 K) was 0.0902 ± 0.0045 mPa·s. For the same compound, the viscosity (333.16 K, 5000 kPa) was 0.0866 ± 0.0044 mPa·s, the viscosity (333.16 K, 10000 kPa) was 0.0958 ± 0.0046 mPa·s and the viscosity (333.16 K, 15000 kPa) was 0.1039 ± 0.0047 mPa·s. The viscosity (333.16 K, 20000 kPa) was 0.1113 ± 0.0048 mPa·s, the viscosity (333.16 K, 25000 kPa) was 0.1181 ± 0.0049 mPa·s and the viscosity (333.16 K, 30000 kPa) was 0.1247 ± 0.0051 mPa·s. For the same compound, the “vapor or sublimation pressure” value (333.16 K) was 2170 ± 120 kPa, the viscosity (333.16 K) was 0.0803 ± 0.0043 mPa·s and the viscosity (343.16 K, 5000 kPa) was 0.0766 ± 0.0043 mPa·s. For the same compound, the viscosity (343.16 K, 10000 kPa) was 0.0866 ± 0.0044 mPa·s, the viscosity (343.16 K, 15000 kPa) was 0.0953 ± 0.0046 mPa·s and the viscosity (343.16 K, 20000 kPa) was 0.1027 ± 0.0047 mPa·s. For the same compound, the viscosity (343.16 K, 25000 kPa) was 0.1094 ± 0.0048 mPa·s, the viscosity (343.16 K, 30000 kPa) was 0.1159 ± 0.0049 mPa·s and the “vapor or sublimation pressure” value (343.16 K) was 2680 ± 120 kPa. It also gave a viscosity (343.16 K) of 0.0708 ± 0.0042 mPa·s, a viscosity (353.16 K, 5000 kPa) of 0.0666 ± 0.0041 mPa·s and a viscosity (353.16 K, 10000 kPa) of 0.0782 ± 0.0043 mPa·s. The viscosity (353.16 K, 15000 kPa) was 0.0871 ± 0.0044 mPa·s, the viscosity (353.16 K, 20000 kPa) was 0.0946 ± 0.0045 mPa·s and the viscosity (353.16 K, 25000 kPa) was 0.1014 ± 0.0047 mPa·s. The viscosity (353.16 K, 30000 kPa) was 0.108 ± 0.0048 mPa·s, the “vapor or sublimation pressure” value (353.16 K) was 3280 ± 120 kPa and the viscosity (353.16 K) was 0.0614 ± 0.0041 mPa·s. It also gave a viscosity (363.16 K, 5000 kPa) of 0.0562 ± 0.0041 mPa·s, a viscosity (363.16 K, 10000 kPa) of 0.0699 ± 0.0042 mPa·s and a viscosity (363.16 K, 15000 kPa) of 0.0796 ± 0.0043 mPa·s. It also gave a viscosity (363.16 K, 20000 kPa) of 0.0873 ± 0.0044 mPa·s, a viscosity (363.16 K, 25000 kPa) of 0.0943 ± 0.0045 mPa·s and a viscosity (363.16 K, 30000 kPa) of 0.1005 ± 0.0046 mPa·s. The “vapor or sublimation pressure” value (363.16 K) was 3990 ± 120 kPa and the viscosity (363.16 K) was 0.0514 ± 0.0041 mPa·s.

Reference: the NIST ThermoML archive (doi:10.1007/s10765-013-1546-4)
